Results on 29 compounds are retold here after patent US20260285880A1, “SUBSTITUTED DIHYDROTHIENOPYRIMIDINE COMPOUND, PREPARATION METHOD THEREFOR, AND USE THEREOF” (SHANGHAI YIDI BIOTECHNOLOGY CO., LTD., priority 2023, published 2026).

The target in assay [1] is PDE4B2 (Homo sapiens, UniProt Q07343). As to conditions: read-out: PDE4B2 IC50; enzyme assay.
Assay [2] deals with Flpin-293-PDE4B2 cells (Homo sapiens, UniProt Q07343). The assay is described as follows: cell-based. As to conditions: for inhibition at 0.001 µM: read-out: Cell Inhibition % @1 nM, 1 nM, Flpin-293-PDE4B2 cells; for inhibition at 0.01 µM: read-out: Cell Inhibition % @10 nM, 10 nM, Flpin-293-PDE4B2 cells; for inhibition at 0.1 µM: read-out: Cell Inhibition % @100 nM, 100 nM, Flpin-293-PDE4B2 cells.
Flpin-293-PDE4B2 cells, sequence (Q07343 1-564 isoform Q07343-2): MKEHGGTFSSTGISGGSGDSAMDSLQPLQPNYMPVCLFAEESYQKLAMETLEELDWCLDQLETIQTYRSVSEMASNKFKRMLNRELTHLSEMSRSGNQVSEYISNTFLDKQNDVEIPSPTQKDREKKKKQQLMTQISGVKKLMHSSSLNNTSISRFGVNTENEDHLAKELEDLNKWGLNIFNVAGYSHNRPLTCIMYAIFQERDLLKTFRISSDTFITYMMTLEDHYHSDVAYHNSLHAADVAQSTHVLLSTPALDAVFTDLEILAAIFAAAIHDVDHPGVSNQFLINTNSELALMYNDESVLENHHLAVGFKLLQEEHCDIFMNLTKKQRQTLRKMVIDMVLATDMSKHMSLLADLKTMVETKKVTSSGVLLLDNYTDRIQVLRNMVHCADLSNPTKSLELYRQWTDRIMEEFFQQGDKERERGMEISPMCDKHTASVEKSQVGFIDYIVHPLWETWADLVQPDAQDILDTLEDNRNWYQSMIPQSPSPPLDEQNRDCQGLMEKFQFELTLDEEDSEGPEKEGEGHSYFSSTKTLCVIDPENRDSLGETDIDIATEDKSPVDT
Procedure: All compounds were dissolved in DMSO into 10 mM or 20 mM stock solutions. The compound to be tested was diluted with DMSO with a 3-fold gradient. […] 40 nL/well of the compound or a DMSO control was transferred to a 384-well plate by using Echo 550 instrument. […] The plate was incubated at 37° C. for 30 minutes. Eu-cAMP tracer and Ulight-anti-cAMP were frozen and thawed and diluted in a lysis buffer. 10 of μl Eu-cAMP tracer was added to an experimental well, and 10 μl of Ulight-anti-cAMP was added to the experimental well. The reaction plate was centrifuged at 200 g at room temperature for 30 s and then left to stand at 25° C. for 1 h, and data was then collected by Envision. Inhibition %=100−(Signal compound−SignalAve positive control)/(SignalAve negative control−SignalAve positive control)×100.

The target in assay [3] is PDE4D2 (Homo sapiens, UniProt Q08499). The assay is described as follows: PDE4D2 enzyme experiment (AMP-Glo). Particulars: read-out: PDE4D2 IC50 Binding; enzyme assay.
PDE4D2, sequence (Q08499 303-809 limits assumed): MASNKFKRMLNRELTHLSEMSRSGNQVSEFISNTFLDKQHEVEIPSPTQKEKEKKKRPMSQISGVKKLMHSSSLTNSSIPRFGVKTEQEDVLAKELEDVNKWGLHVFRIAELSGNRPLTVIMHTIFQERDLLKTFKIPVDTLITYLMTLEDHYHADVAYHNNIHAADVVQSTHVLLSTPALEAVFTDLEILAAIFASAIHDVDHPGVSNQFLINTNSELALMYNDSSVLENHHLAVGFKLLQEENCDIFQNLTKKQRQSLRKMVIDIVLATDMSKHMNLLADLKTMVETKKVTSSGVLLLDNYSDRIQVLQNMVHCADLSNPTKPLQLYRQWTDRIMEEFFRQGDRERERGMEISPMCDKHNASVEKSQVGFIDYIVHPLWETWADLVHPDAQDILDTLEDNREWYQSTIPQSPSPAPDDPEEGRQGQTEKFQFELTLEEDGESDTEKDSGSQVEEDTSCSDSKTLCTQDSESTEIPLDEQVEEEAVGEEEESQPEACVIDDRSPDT
Procedure: All compounds were dissolved in DMSO into 10 mM or 20 mM stock solutions. The compound to be tested was diluted with DMSO in a 3-fold gradient. 20 nL/well of the compound or a DMSO control was transferred to a 384-well plate by using Echo 550 instrument. The plate was sealed with a membrane and centrifuged for 1 minute. A 2× enzyme solution was prepared with an assay buffer, and 2 uL/well of the 2× enzyme solution was added, followed by equilibration at room temperature for 10 minutes. A 2× Cyclic-3′,5′-AMP substrate solution was prepared with an assay buffer, and 2 uL/well of the 2× substrate solution was added, followed by incubation at room temperature for 60 minutes. 4 μL of AMP-glo reagent was added, followed by incubation at room temperature for 60 minutes. 8 ul of an AMP detection solution was added, followed by incubation at room temperature for 60 minutes. An RLU value was read on Envision 2105 plate reader. The RLU value represents the concentration of the product AMP. Inhibition rate %=(1−(RLUpositive control−RLUcomnpound)/(RLUpositive control−RLUnegative control))*100. The IC50 value was then calculated by Graphpad 8.0 software using Y=Bottom+(Top−Bottom)/(1+10^((LogIC50−X)*HillSlope)).

PDE4B2, sequence (Q07343 1-564 isoform Q07343-2, species assumed): as the sequence (Q07343 1-564 isoform Q07343-2) above

By IC50 is commonly meant the concentration at which inhibition is half-maximal. What is called inhibition is the relative decrease from the control value, in per cent. As for `[O-][S+]1CCc2nc(N3CCc4cc(N5CCC[C@H]5CO)ccc4C3)nc(NC3(CO)CCC3)c21` (stereo partly shown) [Compound 132], the half-maximal inhibitory concentration (IC50) in assay [1] is 0.368 nM. Besides, in assay [2], the inhibition at 0.001 µM was found to be 16.2%, the inhibition at 0.01 µM turned out to be 78.6% and the inhibition at 0.1 µM was determined as 102%. Further, in assay [3], the 50% inhibitory concentration (IC50) was 0.651 nM.
For `C[C@@H]1CCCN1c1ccc2c(c1)CCN(c1nc3c(c(NC4(CO)CCC4)n1)[S+]([O-])CC3)C2` (stereo partly shown) [Compound 133], in that order: 0.515 nM, 10.5%, 33%, 94.2% and 1.55 nM.
For `C[C@H]1CCCN1c1ccc2c(c1)CCN(c1nc3c(c(NC4(CO)CCC4)n1)[S+]([O-])CC3)C2` (stereo partly shown) [Compound 134] the same measures were 0.098 nM, 19.2%, 86.8%, 101% and 0.24 nM.
For `CN1CC(Nc2nc(N3CCc4cc(Cl)ccc4C3)nc3c2[S+]([O-])CC3)CCC1=O` (stereo not shown) [Compound 136] the same measures were 0.0407 nM, 48.1%, 98.3%, 101% and 0.0825 nM.
On to `Cn1cc(CNc2nc(N3CCc4cc(Cl)ccc4C3)nc3c2[S+]([O-])CC3)cn1` (stereo not shown) [Compound 142], for which the IC50 in assay [1] was found to be 0.837 nM. Moreover, in assay [2], the inhibition at 0.001 µM came to 6.79%, the inhibition at 0.01 µM worked out at 34.8% and the inhibition at 0.1 µM came out at 94.4%. The IC50 in assay [3] was 2.27 nM.
For `[O-][S+]1CCc2nc(N3CCc4cc(N5CCCCC5)ccc4C3)nc(NC3(CO)CCC3)c21` (stereo not shown) [Compound 143], in that order: 0.113 nM, 13.9%, 72.5%, 100% and 0.252 nM.
For `[O-][S+]1CCc2nc(N3CCc4cc(N5CCOCC5)ccc4C3)nc(NC3(CO)CCC3)c21` (stereo not shown) [Compound 144] the same measures were 0.44 nM, 7.35%, 51.4%, 98.6% and 0.697 nM.
For `[O-][S+]1CCc2nc(N3CCc4cc(N5CC6CC6C5)ccc4C3)nc(NC3(CO)CCC3)c21` (stereo not shown) [Compound 145] the same measures were 0.245 nM, 4.25%, 36%, 95.9% and 0.985 nM.
Consider `CN(C)C1CCN(c2ccc3c(c2)CCN(c2nc4c(c(NC5(CO)CCC5)n2)[S+]([O-])CC4)C3)C1` (stereo not shown) [Compound 148], for which the 50% inhibitory concentration (IC50) in assay [1] amounted to 0.7 nM. In assay [2], the inhibition at 0.001 µM came to 3.99%, the inhibition at 0.01 µM came to 37.3% and the inhibition at 0.1 µM was 92.1%. The IC50 in assay [3] was 1.1 nM.
For `[O-][S+]1CCc2nc(N3CCc4cc(N5CCC(F)C5)ccc4C3)nc(NC3(CO)CCC3)c21` (stereo not shown) [Compound 149] the same measures were 0.43 nM, 5.99%, 38.3%, 96% and 1.08 nM.
For `[O-][S+]1CCc2nc(N3CCc4cc(N5CC[C@@H](F)C5)ccc4C3)nc(NC3(CO)CCC3)c21` (stereo partly shown) [Compound 150], in that order: 0.418 nM, 11.8%, 49.6%, 97.5% and 0.694 nM.
Consider `CO[C@H]1CCN(c2ccc3c(c2)CCN(c2nc4c(c(NC5(CO)CCC5)n2)[S+]([O-])CC4)C3)C1` (stereo partly shown) [Compound 151], for which the IC50 in assay [1] came to 0.298 nM. Moreover, in assay [2], the inhibition at 0.001 µM turned out to be 7.66%, the inhibition at 0.01 µM was 56.5% and the inhibition at 0.1 µM came out at 99.1%. Further, the IC50 in assay [3] came out at 0.655 nM.
For `CO[C@@H]1CCN(c2ccc3c(c2)CCN(c2nc4c(c(NC5(CO)CCC5)n2)[S+]([O-])CC4)C3)C1` (stereo partly shown) [Compound 152], in that order: 0.426 nM, 16.1%, 66%, 99.2% and 0.748 nM.
For `[O-][S+]1CCc2nc(N3CCc4cc(N5C[C@H]6C[C@@H]5CO6)ccc4C3)nc(NC3(CO)CCC3)c21` (stereo partly shown) [Compound 153], in that order: 0.182 nM, 10.2%, 76.8%, 99.9% and 0.52 nM.
For `[O-][S+]1CCc2nc(N3CCc4cc(N5CC6COCC6C5)ccc4C3)nc(NC3(CO)CCC3)c21` (stereo not shown) [Compound 154], in that order: 0.138 nM, 26.5%, 91%, 99.7% and 0.279 nM.
In the case of `[O-][S+]1CCc2nc(N3CCc4cc(N5CCC(C(F)(F)F)C5)ccc4C3)nc(NC3(CO)CCC3)c21` (stereo not shown) [Compound 156], the 50% inhibitory concentration (IC50) in assay [1] was found to be 1.26 nM. Moreover, in assay [2], the inhibition at 0.001 µM came to 1.42%, the inhibition at 0.01 µM turned out to be 25.7% and the inhibition at 0.1 µM came out at 91.7%. Also, in assay [3], the half-inhibitory concentration (IC50) turned out to be 1.76 nM.
For `N#CC1CCN(c2ccc3c(c2)CCN(c2nc4c(c(NC5(CO)CCC5)n2)[S+]([O-])CC4)C3)C1` (stereo not shown) [Compound 159], in that order: 0.224 nM, 16.8%, 73.4%, 99.6% and 0.389 nM.
For `[O-][S+]1CCc2nc(N3CCc4cc(N5CC6C(C5)C6(F)F)ccc4C3)nc(NC3(CO)CCC3)c21` (stereo not shown) [Compound 161] the same measures were 0.67 nM, 3.1%, 37.3%, 96.3% and 0.824 nM.
On to `CN1C[C@@H]2CCN(c3ccc4c(c3)CCN(c3nc5c(c(NC6(CO)CCC6)n3)[S+]([O-])CC5)C4)[C@@H]2C1` (stereo partly shown) [Compound 162], for which the IC50 in assay [1] was 0.589 nM. Besides, in assay [2], the inhibition at 0.001 µM came to 10.7%, the inhibition at 0.01 µM came to 52.8% and the inhibition at 0.1 µM was determined as 93.8%. In addition, the concentration for half-maximal inhibition (IC50) in assay [3] came to 0.584 nM.
For `O=S1(=O)C[C@H]2C[C@@H]1CN2c1ccc2c(c1)CCN(c1nc3c(c(NC4(CO)CCC4)n1)[S+]([O-])CC3)C2` (stereo partly shown) [Compound 163], in assay [1], the IC50 amounted to 0.17 nM. Also, in assay [2], the inhibition at 0.001 µM stood at 11.9%, the inhibition at 0.01 µM is 56.7% and the inhibition at 0.1 µM came out at 96.7%. The concentration for half-maximal inhibition (IC50) in assay [3] stood at 0.3 nM.
In the case of `[O-][S+]1CCc2nc(N3CCc4cc(N5CCC6(COC6)C5)ccc4C3)nc(NC3(CO)CCC3)c21` (stereo not shown) [Compound 165], the half-maximal inhibitory concentration (IC50) in assay [1] came out at 0.351 nM. In addition, in assay [2], the inhibition at 0.001 µM is 10.3%, the inhibition at 0.01 µM was determined as 76.8% and the inhibition at 0.1 µM was found to be 99.9%. Also, the half-maximal inhibitory concentration (IC50) in assay [3] was found to be 0.398 nM.
For `[O-][S+]1CCc2nc(N3CCc4cc(N5CCC6(CC5)COC6)ccc4C3)nc(NC3(CO)CCC3)c21` (stereo not shown) [Compound 166], in that order: 0.457 nM, 9.23%, 61.6%, 98.2% and 0.453 nM.
For `Cn1cc(Nc2nc(N3CCc4cc(N5CCCC5)ccc4C3)nc3c2[S+]([O-])CC3)cn1` (stereo not shown) [Compound 168] the same measures were 0.108 nM, 6.54%, 46.9%, 98.6% and 0.561 nM.
For `CN1CCN(c2ccc3c(c2)CCN(c2nc4c(c(NC5(CO)CCC5)n2)[S+]([O-])CC4)C3)CC1` (stereo not shown) [Compound 170] the same measures were 0.729 nM, 1.97%, 26.7%, 86.9% and 1.29 nM.
As for `CC(C)(O)[C@@H]1CCN(c2ccc3c(c2)CCN(c2nc4c(c(NC5(CO)CCC5)n2)[S+]([O-])CC4)C3)C1` (stereo partly shown) [Compound 173], in assay [1], the IC50 was 0.386 nM. Moreover, in assay [2], the inhibition at 0.001 µM was found to be 8.43%, the inhibition at 0.01 µM worked out at 65.7% and the inhibition at 0.1 µM turned out to be 99.5%. Also, the IC50 in assay [3] is 0.391 nM.
For `CC1(O)CCN(c2ccc3c(c2)CCN(c2nc4c(c(NC5(CO)CCC5)n2)[S+]([O-])CC4)C3)C1` (stereo not shown) [Compound 175] the same measures were 0.299 nM, 6.9%, 59.4%, 98.4% and 0.603 nM.
For `C[C@H]1CCN1c1ccc2c(c1)CCN(c1nc3c(c(NC4(CO)CCC4)n1)[S+]([O-])CC3)C2` (stereo partly shown) [Compound 176], in that order: 0.607 nM, 6.1%, 51.5%, 97.8% and 0.716 nM.
For `[O-][S+]1CCc2nc(N3CCc4cc(N5CC6CC5C6)ccc4C3)nc(NC3(CO)CCC3)c21` (stereo not shown) [Compound 177] the same measures were 0.508 nM, 7.25%, 53.3%, 98.6% and 0.502 nM.
As to `CN1CC2CN(c3ccc4c(c3)CCN(c3nc5c(c(NC6(CO)CCC6)n3)[S+]([O-])CC5)C4)CC2C1` (stereo not shown) [Compound 179], in assay [1], the IC50 worked out at 0.502 nM. Moreover, in assay [2], the inhibition at 0.001 µM amounted to 9.95%, the inhibition at 0.01 µM came out at 51.5% and the inhibition at 0.1 µM amounted to 92.2%. In addition, in assay [3], the IC50 came out at 0.46 nM.
